One data set concerns the target PD-1/PD-L1 (Homo sapiens (Human), UniProt Q9NZQ7). Nature of the data set: PD-1/PD-L1 Binding Assay (Alphascreen). Put shortly: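 PD-1/PD-L1 binding detected by anti-6×His acceptor and streptavidin donor beads after 120 min in the dark at 25 °C. Beforehand, the two proteins were incubated 15 min at 25 °C with inhibitor at 0.015–300 nM (1% DMSO). IC50 comes from a log concentration–response curve.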
(In general: In Alpha technology, singlet oxygen from a donor bead excites a nearby acceptor bead.)

A short description of data set [1]: Pharmacokinetic Assay, single oral dose 5 mg/kg (Table 12). It is filed as in vivo. The following applies: mouse, plasma concentration, C57 female mice, single oral dose 5 mg/kg. The procedure: Adult C57 female mice were received to single-dose of the test compounds with 15% DMSO, 10% Kolliphor^@HS 15 and 75% saline as excipients, the mice (n=3) were giving oral administration (intragastric administration) with the compounds at a dose of 5 mg/kg. Time of blood collection: 30 min, 2 h, 4 h. approximately 0.1 mL of whole blood was collected from retro-orbital venous plexus, and placed into tubes that contained K2-EDTA as an anticoagulant. The whole blood were centrifuged at 4° C. and 4000 rpm for 10 min. The plasma was transferred into centrifuge tubes, and stored at −20° C. until being analyzed. Concentrations of test compounds in the plasma samples were analyzed with liquid chromatography-tandem mass spectrometry (LC-MS/MS). Plasma concentration-time data of individual animals was analyzed using Microsoft Excel 2010.

Sequence of PD-1/PD-L1 (Q9NZQ7 19-238): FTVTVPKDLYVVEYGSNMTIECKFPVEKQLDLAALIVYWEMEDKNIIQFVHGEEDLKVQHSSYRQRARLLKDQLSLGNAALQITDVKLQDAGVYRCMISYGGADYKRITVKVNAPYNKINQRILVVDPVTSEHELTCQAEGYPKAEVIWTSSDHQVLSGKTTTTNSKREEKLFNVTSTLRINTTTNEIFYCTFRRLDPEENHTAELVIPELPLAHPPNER

For `Cc1c(-c2nc3c(o2)CCN(CC2CCO2)C3)cccc1-c1cccc(-c2nc3cc(CN4CCC[C@H]4C(=O)O)c(OC(F)F)cc3o2)c1C` (stereo partly shown) [Example 192, ((6-(difluoromethoxy)-2-(2,2′-dimethyl-3′-(5-(oxetan-2-ylmethyl)-4,5,6,7-tetrahydrooxazolo[4,5-c]pyridin-2-yl)-[1,1′-biphenyl]-3-yl)benzo[d]oxazol-5-yl)methyl)proline], the IC50 (in general, the concentration that gives 50% inhibition) on PD-1/PD-L1 (range symbols) fell in the range of 5 to 50 nM. In data set [1], this compound showed a concentration at 0.5 h of 469 ng/mL, a concentration at 2 h of 440 ng/mL and a concentration at 4 h of 268 ng/mL.
Consider `Cc1c(-c2nc3cc(CN4CCC[C@H]4C(=O)O)c(OC(F)F)cc3o2)cccc1-c1cccc(-c2nc3cc(CN4CCCC4)cc(C#N)c3o2)c1C` [Example 127, ((2-(3′-(7-cyano-5-(pyrrolidin-1-ylmethyl)benzo[d]oxazol-2-yl)-2,2′-dimethyl-[1,1′-biphenyl]-3-yl)-6-(difluoromethoxy)benzo[d]oxazol-5-yl)methyl)-L-proline], for which the IC50 at PD-1/PD-L1 (numeric values) was found to be 3.1 nM. In data set [1], this compound displayed a concentration at 0.5 h of 61.3 ng/mL, a concentration at 2 h of 253 ng/mL and a concentration at 4 h of 216 ng/mL.
In the case of `COc1nc(-c2cccc(-c3cccc(-c4nc5cc(CN6CCC[C@H]6C(=O)O)c(OC(F)F)cc5o4)c3C)c2C)ccc1CNCC1CCC(=O)N1` (stereo partly drawn) [Example 276, ((6-(difluoromethoxy)-2-(3′-(6-methoxy-5-((((5-oxopyrrolidin-2-yl)methyl)amino)methyl)pyridin-2-yl)-2,2′-dimethyl-[1,1′-biphenyl]-3-yl)benzo[d]oxazol-5-yl)methyl)-L-proline], at PD-1/PD-L1 (range symbols), the IC50 was 0.1 to 5 nM. In data set [1], this compound showed a concentration at 0.5 h of 131 ng/mL, a concentration at 2 h of 291 ng/mL and a concentration at 4 h of 238 ng/mL.
Taken in the same sequence, the figures for `Cc1c(-c2nc3c(o2)CCN(CCCC(F)(F)F)C3)cccc1-c1cccc(-c2nc3cc(CN4CCC[C@H]4C(=O)O)c(OC(F)F)cc3o2)c1C` [Example 191, ((6-(difluoromethoxy)-2-(2,2′-dimethyl-3′-(5-(4,4,4-trifluorobutyl)-4,5,6,7-tetrahydrooxazolo[4,5-c]pyridin-2-yl)-[1,1′-biphenyl]-3-yl)benzo[d]oxazol-5-yl)methyl)proline] were 5 to 50 nM, 520 ng/mL, 1170 ng/mL and 1330 ng/mL.
For `Cc1c(-c2nc3cc(CN4CCC[C@H]4C(=O)O)c(OC(F)F)cc3o2)cccc1-c1cccc(-c2nc3cc(CN4CCC(F)C4)cc(C#N)c3o2)c1C` (stereo partly drawn) [Example 162, ((2-(3′-(7-cyano-5-((3-fluoropyrrolidin-1-yl)methyl)benzo[d]oxazol-2-yl)-2,2′-dimethyl-[1,1′-biphenyl]-3-yl)-6-(difluoromethoxy)benzo[d]oxazol-5-yl)methyl)-L-proline] the same measures were 5 to 50 nM, 277 ng/mL, 670 ng/mL and 441 ng/mL.
For `Cc1c(-c2nc3cc(CN4CC[C@@H](C(=O)O)C4)c(OC(F)F)cc3o2)cccc1-c1cccc(-c2nc3cc(CN4CC(C)(C)C4)c(OC(F)F)cc3o2)c1C` [Example 85, (R)-1-((6-(difluoromethoxy)-2-(3′-(6-(difluoromethoxy)-5-((3,3-dimethylazetidin-1-yl)methyl)benzo[d]oxazol-2-yl)-2,2′-dimethyl-[1,1′-biphenyl]-3-yl)benzo[d]oxazol-5-yl)methyl)pyrrolidine-3-carboxylic acid] the same measures were 0.1 to 5 nM, 75.9 ng/mL, 146 ng/mL and 135 ng/mL.
`Cc1c(-c2ccc(CN3CCCC3)c(C#N)c2)cccc1-c1cccc(-c2nc3cc(CN4CCC[C@H]4C(=O)O)c(OC(F)F)cc3o2)c1C` [Example 245, ((2-(3″-cyano-2,2′-dimethyl-4″-(pyrrolidin-1-ylmethyl)-[1,1′:3′,1″-terphenyl]-3-yl)-6-(difluoromethoxy)benzo[d]oxazol-5-yl)methyl)-L-proline] yielded an IC50 at PD-1/PD-L1 (numeric values) of 3.8 nM. In data set [1], this compound had a concentration at 0.5 h of 101 ng/mL, a concentration at 2 h of 237 ng/mL and a concentration at 4 h of 191 ng/mL.
As to `Cc1c(-c2ccc(CN3CCCC3)c(C(F)(F)F)c2)cccc1-c1cccc(-c2nc3cc(CN4CCC[C@H]4C(=O)O)c(OC(F)F)cc3o2)c1C` [Example 233, ((6-(difluoromethoxy)-2-(2,2′-dimethyl-4″- (pyrrolidin-1-ylmethyl)-3″-(trifluoromethyl)-[1,1′:3′,1″-terphenyl]-3-yl)benzo[d]oxazol-5-yl)methyl)-L-proline], at PD-1/PD-L1 (numeric values), the IC50 was found to be 41 nM. In data set [1], this compound registered a concentration at 0.5 h of 143 ng/mL, a concentration at 2 h of 322 ng/mL and a concentration at 4 h of 296 ng/mL.
Taken in the same sequence, the figures for `Cc1c(-c2nc3cc(CN4CCC[C@H]4C(=O)O)c(OC(F)F)cc3o2)cccc1-c1cccc(-c2nc3cc(CN4[C@H]5CC[C@@H]4CC5)c(OC(F)F)cc3o2)c1C` [Example 72, ((2-(3′-(5-(((1s,4s)-7-azabicyclo[2.2.1]heptan-7-yl)methyl)-6-(difluoromethoxy)benzo[d]oxazol-2-yl)-2,2′-dimethyl-[1,1′-biphenyl]-3-yl)-6-(difluoromethoxy)benzo[d]oxazol-5-yl)methyl)-L-proline] were 0.98 nM, 42.6 ng/mL, 140 ng/mL and 132 ng/mL.
As to `Cc1c(-c2nc3c(o2)CCCC3)cccc1-c1cccc(-c2nc3cc(CN4CCC[C@H]4C(=O)O)c(OC(F)F)cc3o2)c1C` [Example 205, ((6-(difluoromethoxy)-2-(2,2′-dimethyl-3′-(4,5,6,7-tetrahydrobenzo[d]oxazol-2-yl)-[1,1′-biphenyl]-3-yl)benzo[d]oxazol-5-yl)methyl)proline], the IC50 on PD-1/PD-L1 (range symbols) fell in the range of 0.1 to 5 nM. Moreover, in data set [1], the concentration at 0.5 h turned out to be 1000 ng/mL, the concentration at 2 h came to 1440 ng/mL and the concentration at 4 h amounted to 1420 ng/mL.
As for `Cc1c(-c2nc3cc(CN4CC(C)C4)c(OC(F)F)cc3o2)cccc1-c1cccc(-c2nc3cc(CN4CCC[C@H]4C(=O)O)c(OC(F)F)cc3o2)c1C` [Example 56, ((6-(difluoromethoxy)-2-(3′-(6-(difluoromethoxy)-5-((3-methylazetidin-1-yl)methyl)benzo[d]oxazol-2-yl)-2,2′-dimethyl-[1,1′-biphenyl]-3-yl)benzo[d]oxazol-5-yl)methyl)-L-proline], the IC50 on PD-1/PD-L1 (numeric values) was found to be 0.83 nM. For the same compound, in data set [1], the concentration at 0.5 h was determined as 19.9 ng/mL, the concentration at 2 h is 192 ng/mL and the concentration at 4 h was 155 ng/mL.
As for `Cc1c(-c2nc3c(o2)CCN(CCCF)C3)cccc1-c1cccc(-c2nc3cc(CN4CCC[C@H]4C(=O)O)c(OC(F)F)cc3o2)c1C` [Example 200, ((6-(difluoromethoxy)-2-(3′-(5-(3-fluoropropyl)-4,5,6,7-tetrahydrooxazolo[4,5-c]pyridin-2-yl)-2,2′-dimethyl-[1,1′-biphenyl]-3-yl)benzo[d]oxazol-5-yl)methyl)proline], at PD-1/PD-L1 (range symbols), the IC50 fell in the range of 5 to 50 nM.
`Cc1c(-c2nc3cc(CN4CCC[C@H]4C(=O)O)c(OC(F)F)cc3o2)cccc1-c1cccc(-c2nc3cc(CNCC4CCC(=O)N4)cc(C#N)c3o2)c1C` (stereo partly drawn) [Example 139, ((2-(3′-(7-cyano-5-((((5-oxopyrrolidin-2-yl)methyl)amino)methyl)benzo[d]oxazol-2-yl)-2,2′-dimethyl-[1,1′-biphenyl]-3-yl)-6-(difluoromethoxy)benzo[d]oxazol-5-yl)methyl)-L-proline] displayed an IC50 on PD-1/PD-L1 (range symbols) of 0.1 to 5 nM.
Same read-out and setting: the result for `Cc1c(-c2ccc(CN3CC[C@H](CO)C3)c(C#N)c2)cccc1-c1cccc(-c2nc3cc(CN4CCC[C@H]4C(=O)O)c(OC(F)F)cc3o2)c1C` [Example 240, ((2-(3″-cyano-4″-(((S)-3-(hydroxymethyl)pyrrolidin-1-yl)methyl)-2,2′-dimethyl-[l,1′:3′,1″-terphenyl]-3-yl)-6-(difluoromethoxy)benzo[d]oxazol-5-yl)methyl)-L-proline] reads 5 to 50 nM; that for `Cc1c(-c2nc3cc(CN(C)C[C@H]4CCCO4)c(OC(F)F)cc3o2)cccc1-c1cccc(-c2nc3cc(CN4CCC[C@H]4C(=O)O)c(OC(F)F)cc3o2)c1C` [Example 30, ((6-(difluoromethoxy)-2-(3′-(6-(difluoromethoxy)-5-((methyl(((R)-tetrahydrofuran-2-yl)methyl)amino)methyl)benzo[d]oxazol-2-yl)-2,2′-dimethyl-[1,1′-biphenyl]-3-yl)benzo[d]oxazol-5-yl)methyl)-L-proline], 0.1 to 5 nM.
Turning to `Cc1c(-c2nc3cc(CNCCCNCCO)c(OC(F)F)cc3o2)cccc1-c1cccc(-c2nc3cc(CN4CCC[C@H]4C(=O)O)c(OC(F)F)cc3o2)c1C` [Example 58, ((6-(difluoromethoxy)-2-(3′-(6-(difluoromethoxy)-5-(((3-((2-hydroxyethyl)amino)propyl)amino)methyl)benzo[d]oxazol-2-yl)-2,2′-dimethyl-[1,1′-biphenyl]-3-yl)benzo[d]oxazol-5-yl)methyl)-L-proline], on PD-1/PD-L1 (numeric values), the IC50 amounted to 0.79 nM.

The record behind these values is US12187713B2, “Immunomodulators, compositions and methods thereof” (Betta Pharmaceuticals Co., Ltd, priority 2019, dated 2025).
